Usually IC50 stands for the concentration needed to halve the response being measured.

Molecules are shown by their SMILES.

The nature of data set [1]: Relative solubility by turbidity in aqueous buffers of varying pH. In kind it is physicochemical. The note with it: for turbidity threshold (L, M, H) 7.4: HEPES pH 7.4; for turbidity threshold (L, M, H) 4.5: SIF pH 4.5; for turbidity threshold (L, M, H) 6.8: SIF pH 6.8; for turbidity threshold (L, M, H) 1.4: buffer pH 1.4 (SGF). An outline of the steps: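 Turbidity endpoint: concentration where optical density at 490, 535 and 650 nm exceeds 0.01, three-wavelength average used. Buffers at pH 1.5, 4.5, 6.8 and 7.4; DMSO serial dilutions of 25 mM stock spiked 1 μL into 99 μL buffer. Low <31.3, moderate 31.3–250, high >250 μM.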

The next data set has as its target CYP3A4(BQ) (Homo sapiens, UniProt P08684). Kind of data set: CYP3A4(BQ) inhibition (fluorescent substrate). It counts as in vitro ADME. The note with it: read-out: Cyp IC50 3A4(BQ). Summed up: (§1)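 Compound, from a 100 mM DMSO stock and diluted 1:1 over 10 points in co-factor mix, was incubated at 37° C with enzyme and a known substrate. Decrease in fluorescent product against concentration gave the IC50.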

The next data set concerns the target CYP3A4(BFC) (Homo sapiens, UniProt P08684). In words: CYP3A4(BFC) inhibition (fluorescent substrate). In kind it is in vitro ADME. The note with it: read-out: Cyp IC50 3A4(BFC). An outline of the steps: as §1
Another data set concerns the target B-Raf (Homo sapiens, UniProt P15056). In words: B-Raf biochemical kinase inhibition (AlphaScreen, biotin-MEK1 substrate). The note with it: 100 μM ATP. Summed up:
(§2)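 Eight-point compound series (made from a 0.1 mM DMSO stock) tested against each Raf enzyme with biotin-MEK1 substrate and 100 μM final ATP.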
A general note: Bead proximity is the source of the signal in Alpha formats.

The target of another data set is T1, A-Raf (Homo sapiens, UniProt P10398).
T1 sequence (P10398 1-606): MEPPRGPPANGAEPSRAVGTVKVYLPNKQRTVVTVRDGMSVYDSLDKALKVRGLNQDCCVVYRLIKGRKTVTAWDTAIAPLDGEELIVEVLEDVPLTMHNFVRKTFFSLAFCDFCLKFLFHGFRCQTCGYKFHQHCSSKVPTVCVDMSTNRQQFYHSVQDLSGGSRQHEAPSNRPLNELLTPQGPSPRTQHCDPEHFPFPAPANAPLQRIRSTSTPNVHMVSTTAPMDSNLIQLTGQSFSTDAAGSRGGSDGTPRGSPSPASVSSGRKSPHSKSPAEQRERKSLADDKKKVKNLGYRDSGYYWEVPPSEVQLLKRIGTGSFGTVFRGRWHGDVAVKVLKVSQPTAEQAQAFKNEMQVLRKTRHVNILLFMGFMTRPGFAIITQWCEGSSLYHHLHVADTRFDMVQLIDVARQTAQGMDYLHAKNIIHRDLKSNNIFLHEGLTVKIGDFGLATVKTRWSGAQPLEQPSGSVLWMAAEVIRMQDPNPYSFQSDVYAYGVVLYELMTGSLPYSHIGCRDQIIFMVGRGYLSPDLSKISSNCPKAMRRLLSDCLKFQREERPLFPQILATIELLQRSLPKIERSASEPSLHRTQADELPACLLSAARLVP
Kind of data set: A-Raf biochemical kinase inhibition (AlphaScreen, biotin-MEK1 substrate). The note with it: 100 μM ATP. How it is done: Compounds to be tested are diluted in dimethyl sulfoxide to a concentration of 0.1 mM. These are serially diluted 15 μL into 30 μL of dimethyl sulfoxide seven times in 96 well plates for a total of 8 dilution points, and for each dilution point 1 μL is added to a well of an assay plate. […] The reaction is started with addition of 10 μL of 200 μM ATP (i.e. final 100 μM ATP). […] The plates are incubated for 3 hours at room temperature and read on Envision reader (Perkin Elmer). […] The signal vs. compound concentration is used to determine the IC50.

The next data set has as its target c-Raf-1 (Homo sapiens, UniProt P04049). In words: c-Raf-1 biochemical kinase inhibition (AlphaScreen, biotin-MEK1 substrate). The note with it: 100 μM ATP. An outline of the steps: as §2

Sequence of B-Raf (P15056 whole entry): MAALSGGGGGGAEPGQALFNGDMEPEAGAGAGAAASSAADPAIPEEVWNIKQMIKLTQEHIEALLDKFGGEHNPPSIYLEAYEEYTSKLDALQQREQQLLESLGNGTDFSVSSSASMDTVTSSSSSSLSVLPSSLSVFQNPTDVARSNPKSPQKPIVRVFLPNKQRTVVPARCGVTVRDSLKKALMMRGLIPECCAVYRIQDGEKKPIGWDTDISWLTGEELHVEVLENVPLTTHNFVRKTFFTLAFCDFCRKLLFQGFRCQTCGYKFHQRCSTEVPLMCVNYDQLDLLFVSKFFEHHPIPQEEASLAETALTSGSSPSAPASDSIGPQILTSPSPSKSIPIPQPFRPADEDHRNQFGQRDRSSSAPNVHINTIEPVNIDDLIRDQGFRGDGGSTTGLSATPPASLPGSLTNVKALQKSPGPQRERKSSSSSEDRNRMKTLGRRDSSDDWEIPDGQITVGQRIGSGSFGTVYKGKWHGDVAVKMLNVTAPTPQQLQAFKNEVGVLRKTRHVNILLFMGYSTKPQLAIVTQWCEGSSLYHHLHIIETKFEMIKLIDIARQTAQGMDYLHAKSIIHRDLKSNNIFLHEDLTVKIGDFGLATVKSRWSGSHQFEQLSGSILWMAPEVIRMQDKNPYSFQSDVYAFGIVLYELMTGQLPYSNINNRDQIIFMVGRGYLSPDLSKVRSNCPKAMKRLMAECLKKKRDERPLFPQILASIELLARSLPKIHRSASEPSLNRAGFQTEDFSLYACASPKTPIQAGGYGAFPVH
Sequence of CYP3A4(BQ) (P08684 whole entry): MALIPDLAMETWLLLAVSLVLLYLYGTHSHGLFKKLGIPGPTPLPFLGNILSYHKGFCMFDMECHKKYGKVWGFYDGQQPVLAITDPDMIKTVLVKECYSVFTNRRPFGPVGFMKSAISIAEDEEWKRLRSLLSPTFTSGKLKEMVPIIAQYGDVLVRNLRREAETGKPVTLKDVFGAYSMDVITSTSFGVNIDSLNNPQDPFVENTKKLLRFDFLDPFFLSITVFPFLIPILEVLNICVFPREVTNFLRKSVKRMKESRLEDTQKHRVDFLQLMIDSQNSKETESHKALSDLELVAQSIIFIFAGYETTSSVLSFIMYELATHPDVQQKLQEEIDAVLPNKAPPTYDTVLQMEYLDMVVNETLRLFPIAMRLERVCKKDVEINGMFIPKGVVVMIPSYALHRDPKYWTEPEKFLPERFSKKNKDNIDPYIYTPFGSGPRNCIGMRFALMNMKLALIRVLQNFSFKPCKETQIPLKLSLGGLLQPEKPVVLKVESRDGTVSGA
Sequence of CYP3A4(BFC) (P08684 whole entry): as above
Sequence of c-Raf-1 (P04049 whole entry): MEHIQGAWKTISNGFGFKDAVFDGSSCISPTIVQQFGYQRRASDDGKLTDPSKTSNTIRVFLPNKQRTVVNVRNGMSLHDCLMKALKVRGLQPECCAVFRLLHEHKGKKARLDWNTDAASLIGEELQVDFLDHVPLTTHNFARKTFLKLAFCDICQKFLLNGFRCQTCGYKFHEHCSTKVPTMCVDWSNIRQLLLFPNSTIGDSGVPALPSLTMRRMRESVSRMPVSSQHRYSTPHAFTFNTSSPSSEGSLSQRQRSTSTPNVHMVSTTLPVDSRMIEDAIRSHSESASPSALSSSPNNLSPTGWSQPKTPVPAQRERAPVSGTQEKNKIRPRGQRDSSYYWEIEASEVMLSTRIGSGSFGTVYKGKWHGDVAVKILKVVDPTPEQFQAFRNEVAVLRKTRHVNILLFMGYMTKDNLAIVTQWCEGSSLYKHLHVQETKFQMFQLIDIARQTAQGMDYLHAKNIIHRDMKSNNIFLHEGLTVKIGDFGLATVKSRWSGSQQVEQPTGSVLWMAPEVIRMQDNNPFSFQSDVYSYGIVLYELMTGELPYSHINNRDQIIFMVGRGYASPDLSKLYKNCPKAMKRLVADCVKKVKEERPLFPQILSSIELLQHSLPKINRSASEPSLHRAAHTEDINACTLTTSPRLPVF

Take `COc1cnc2[nH]cc(C(=O)c3c(F)ccc(NS(=O)(=O)c4ccccc4F)c3F)c2c1` [P-2009, N-[2,4-Difluoro-3-(5-methoxy-1H-pyrrolo[2,3-b]pyridine-3-carbonyl)-phenyl]-2-fluoro-benzenesulfonamide]: in data set [1], the “turbidity threshold (L, M, H) 7.4” value was “M (moderate solubility if the threshold concentration is 31.3 μM to 250 μM)”; the “turbidity threshold (L, M, H) 4.5” value was “L (low solubility if the threshold concentration is <31.3 04)”; the “turbidity threshold (L, M, H) 6.8” value is given as “L (low solubility if the threshold concentration is <31.3 04)”; the “turbidity threshold (L, M, H) 1.4” value is “L (low solubility if the threshold concentration is <31.3 04)”. Also, on CYP3A4(BQ), the IC50 is more than 10000 nM. The IC50 at CYP3A4(BFC) is more than 10000 nM. This compound also showed an IC50 on B-Raf of less than 100 nM. This compound also yielded an IC50 at A-Raf of less than 10 nM.

As for `Cc1cnc2[nH]cc(C(=O)c3c(F)ccc(NS(=O)(=O)c4ccccc4F)c3F)c2c1` [P-2014, N-[2,4-Difluoro-3-(5-methyl-1H-pyrrolo[2,3-b]pyridine-3-carbonyl)-phenyl]-2-fluoro-benzenesulfonamide], in data set [1], the “turbidity threshold (L, M, H) 7.4” value was “M (moderate solubility if the threshold concentration is 31.3 μM to 250 μM)”; the “turbidity threshold (L, M, H) 4.5” value was “M (moderate solubility if the threshold concentration is 31.3 μM to 250 μM)”; the “turbidity threshold (L, M, H) 6.8” value is given as “M (moderate solubility if the threshold concentration is 31.3 μM to 250 μM)”; the “turbidity threshold (L, M, H) 1.4” value is recorded as “L (low solubility if the threshold concentration is <31.3 04)”. Also, the IC50 on CYP3A4(BQ) is more than 10000 nM. In addition, the IC50 on CYP3A4(BFC) was more than 10000 nM. On B-Raf, this compound returned an IC50 of less than 100 nM. The IC50 at A-Raf is less than 10 nM.

As to `Cc1cnc2[nH]cc(C(=O)c3c(F)ccc(NS(=O)(=O)c4cccc(F)c4)c3F)c2c1` [P-2016, N-[2,4-Difluoro-3-(5-methyl-1H-pyrrolo[2,3-b]pyridine-3-carbonyl)-phenyl]-3-fluoro-benzenesulfonamide], in data set [1], the “turbidity threshold (L, M, H) 7.4” value is recorded as “M (moderate solubility if the threshold concentration is 31.3 μM to 250 μM)”; the “turbidity threshold (L, M, H) 4.5” value was “L (low solubility if the threshold concentration is <31.3 04)”; the “turbidity threshold (L, M, H) 6.8” value is “M (moderate solubility if the threshold concentration is 31.3 μM to 250 μM)”; the “turbidity threshold (L, M, H) 1.4” value is reported as “H (high solubility if the threshold concentration is >250 μM)”. For the same compound, the IC50 on CYP3A4(BQ) fell in the range of 5000 to 10000 nM. On CYP3A4(BFC), the IC50 was more than 10000 nM. Further, at B-Raf, the IC50 is less than 100 nM. Moreover, at A-Raf, the IC50 is less than 10 nM.

As for `O=C(c1c(F)ccc(NS(=O)(=O)c2ccccc2F)c1F)c1c[nH]c2nccc(Cl)c12` [P-2017, N-[3-(4-Chloro-1H-pyrrolo[2,3-b]pyridine-3-carbonyl)-2,4-difluoro-phenyl]-2-fluoro-benzenesulfonamide], in data set [1], the “turbidity threshold (L, M, H) 7.4” value is listed as “M (moderate solubility if the threshold concentration is 31.3 μM to 250 μM)”; the “turbidity threshold (L, M, H) 4.5” value is recorded as “M (moderate solubility if the threshold concentration is 31.3 μM to 250 μM)”; the “turbidity threshold (L, M, H) 6.8” value is on record as “M (moderate solubility if the threshold concentration is 31.3 μM to 250 μM)”; the “turbidity threshold (L, M, H) 1.4” value was “M (moderate solubility if the threshold concentration is 31.3 μM to 250 μM)”. Further, the IC50 at CYP3A4(BQ) was more than 10000 nM. Besides, at CYP3A4(BFC), the IC50 was more than 10000 nM. Besides, the IC50 on B-Raf was less than 100 nM. At A-Raf, the IC50 is less than 10 nM.

For the compound `O=C(c1c(F)ccc(NS(=O)(=O)c2cc(F)ccc2F)c1F)c1c[nH]c2nccc(Cl)c12` [P-2018, N-[3-(4-Chloro-1H-pyrrolo[2,3-b]pyridine-3-carbonyl)-2,4-difluoro-phenyl]-2,5-difluoro-benzenesulfonamide], in data set [1], the “turbidity threshold (L, M, H) 7.4” value is given as “M (moderate solubility if the threshold concentration is 31.3 μM to 250 μM)”; the “turbidity threshold (L, M, H) 4.5” value was “M (moderate solubility if the threshold concentration is 31.3 μM to 250 μM)”; the “turbidity threshold (L, M, H) 6.8” value is “M (moderate solubility if the threshold concentration is 31.3 μM to 250 μM)”; the “turbidity threshold (L, M, H) 1.4” value is reported as “L (low solubility if the threshold concentration is <31.3 04)”. For the same compound, the IC50 at CYP3A4(BQ) is more than 10000 nM. In addition, on CYP3A4(BFC), the IC50 was 5000 to 10000 nM. This compound also yielded an IC50 against B-Raf of less than 10 nM. Further, the IC50 at A-Raf was less than 10 nM.

As to `O=C(c1c(F)ccc(NS(=O)(=O)c2cccc(F)c2)c1F)c1c[nH]c2nccc(Cl)c12` [P-2019, N-[3-(4-Chloro-1H-pyrrolo[2,3-b]pyridine-3-carbonyl)-2,4-difluoro-phenyl]-3-fluoro-benzenesulfonamide], in data set [1], the “turbidity threshold (L, M, H) 7.4” value was “M (moderate solubility if the threshold concentration is 31.3 μM to 250 μM)”; the “turbidity threshold (L, M, H) 4.5” value was “M (moderate solubility if the threshold concentration is 31.3 μM to 250 μM)”; the “turbidity threshold (L, M, H) 6.8” value is “M (moderate solubility if the threshold concentration is 31.3 μM to 250 μM)”; the “turbidity threshold (L, M, H) 1.4” value is “L (low solubility if the threshold concentration is <31.3 04)”. The IC50 at CYP3A4(BQ) was more than 10000 nM. Moreover, the IC50 on CYP3A4(BFC) was in the range of 5000 to 10000 nM. The compound also displayed an IC50 on B-Raf of less than 10 nM. For the same compound, at A-Raf, the IC50 is less than 10 nM.

The compound `COc1ccnc2[nH]cc(C(=O)c3c(F)ccc(NS(=O)(=O)c4cc(F)ccc4F)c3F)c12` [P-2022, N-[2,4-Difluoro-3-(4-methoxy-1H-pyrrolo[2,3-b]pyridine-3-carbonyl)-phenyl]-2,5-difluoro-benzenesulfonamide] displayed an IC50 against c-Raf-1 of less than 10 nM. Further, in data set [1], the “turbidity threshold (L, M, H) 7.4” value was “H (high solubility if the threshold concentration is >250 μM)”; the “turbidity threshold (L, M, H) 4.5” value was “M (moderate solubility if the threshold concentration is 31.3 μM to 250 μM)”; the “turbidity threshold (L, M, H) 6.8” value is reported as “M (moderate solubility if the threshold concentration is 31.3 μM to 250 μM)”; the “turbidity threshold (L, M, H) 1.4” value is “H (high solubility if the threshold concentration is >250 μM)”. The compound also yielded an IC50 against B-Raf of less than 100 nM. The compound further registered an IC50 at A-Raf of less than 100 nM.

Take `N#Cc1ccnc2[nH]cc(C(=O)c3c(F)ccc(NS(=O)(=O)c4cc(F)ccc4F)c3F)c12` [P-2036, N-[3-(4-Cyano-1H-pyrrolo[2,3-b]pyridine-3-carbonyl)-2,4-difluoro-phenyl]-2,5-difluoro-benzenesulfonamide]: the IC50 was less than 10 nM against c-Raf-1; more than 10000 nM at CYP3A4(BQ); more than 10000 nM at CYP3A4(BFC); less than 10 nM against B-Raf; less than 10 nM against A-Raf.

Turning to `N#Cc1ccnc2[nH]cc(C(=O)c3c(F)ccc(NS(=O)(=O)c4c(F)cccc4F)c3F)c12` [P-2037, N-[3-(4-Cyano-1H-pyrrolo[2,3-b]pyridine-3-carbonyl)-2,4-difluoro-phenyl]-2,6-difluoro-benzenesulfonamide], the IC50 was less than 10 nM against c-Raf-1; more than 10000 nM on CYP3A4(BQ); more than 10000 nM at CYP3A4(BFC); less than 100 nM at B-Raf; less than 10 nM at A-Raf.

On to `CCCS(=O)(=O)Nc1ccc(F)c(C(=O)c2c[nH]c3ncc(-c4ccc(CCCOC)nc4)cc23)c1F` [P-2226, Propane-1-sulfonic acid (2,4-difluoro-3-{5-[6-(3-methoxy-propyl)-pyridin-3-yl]-1H-pyrrolo[2,3-b]pyridine-3-carbonyl}-phenyl)-amide], for which the IC50 against c-Raf-1 was less than 100 nM; on CYP3A4(BQ), more than 10000 nM; at CYP3A4(BFC), more than 10000 nM; against B-Raf, less than 10 nM. In data set [1], the “turbidity threshold (L, M, H) 7.4” value is recorded as “L (low solubility if the threshold concentration is <31.3 04)”. Moreover, in data set [1], the “turbidity threshold (L, M, H) 4.5” value was “L (low solubility if the threshold concentration is <31.3 04)”. For the same compound, in data set [1], the “turbidity threshold (L, M, H) 6.8” value was “L (low solubility if the threshold concentration is <31.3 04)”. The “turbidity threshold (L, M, H) 1.4” value in data set [1] is recorded as “H (high solubility if the threshold concentration is >250 μM)”.

The values above are taken from US8198273B2, “Compounds and methods for kinase modulation, and indications therefor” (Plexxikon Inc., priority 2009, dated 2012).
